Results as given in patent publication US7119075B2, “Use of herbal agents for potentiation of bioefficacy of anti infectives” (priority 2003, dated 2006).

Columns and labels:
Test in all cases: Inhibitory effect of bioenhancers alone
Assay type in all cases: cell-based
[1] = test system: Candida tropicalis ATCC 750; conditions: Candida tropicalis, ATCC750
[2] = test system: Escherichia coli ATCC 25922; conditions: Escherichia coli, ATCC25922
[3] = test system: Methicillin Resistant Staphylococcus aureus (MRSA); conditions: Staphylococcus aureus, MRSA
[4] = test system: Mycobacterium intracelluare ATCC 13950; conditions: Mycobacterium, ATCC13950
[5] = test system: Pseudomonas aeruginosa ATCC 27583; conditions: Pseudomonas aeruginosa, ATCC27583
[6] = test system: Staphylococcus hemolyticus ATCC 29978; conditions: Staphylococcus, ATCC29978
Salmonella typhi AIIMS 2 = conditions: Salmonella enterica, TYPHI, read-out: inhibitory effect
[7] = test system: Staphylococcus epidermidis ATCC 12228; conditions: Staphylococcus epidermidis, ATCC12228
[8] = test system: Aspergillus flavus MTCC 1973; conditions: Aspergillus flavus, MTCC1973
[9] = test system: Aspergillus fumigatus SI-1; conditions: Aspergillus fumigatus, SI1
[10] = test system: Staphylococcus aureus ATCC 29313; conditions: Staphylococcus aureus, ATCC29313
[11] = test system: Klebsiella pneumoniae ATCC 75388; conditions: Klebsiella pneumoniae, ATCC75388
[12] = test system: Mycobacterium tuberculosis 615; conditions: Mycobacterium tuberculosis, 615
Bacillus cereus RRL 02 = conditions: Bacillus cereus, RRL02
[13] = test system: Mycobacterium tuberculosis H37Rv; conditions: Mycobacterium tuberculosis, H37RV, read-out: inhibitory effect
Candida krusei ATCC 6258 = conditions: Pichia kudriavzevii, ATCC6258
[14] = test system: Mycobacterium avium ATCC 49601; conditions: Mycobacterium avium, ATCC49601

O=C(/C=C/C=C/c1ccc2c(c1)OCO2)N1CCCCC1 [piperine]
inhibition at 0.2 µg/mL ([1]; conc. 0.2 μg/ml): 0% | inhibition at 0.8 µg/mL ([1]; conc. 0.8 μg/ml): 0% | inhibition at 3.12 µg/mL ([1]; conc. 3.12 μg/ml): 0% | inhibition at 12.5 µg/mL ([1]; conc. 12.5 μg/ml): 0% | inhibition at 50 µg/mL ([1]; conc. 50 μg/ml): 0% | inhibition at 100 µg/mL ([1]; conc. 100 μg/ml): 20% | inhibition at 0.2 µg/mL ([2]; conc. 0.2 μg/ml): 0% | inhibition at 0.8 µg/mL ([2]; conc. 0.8 μg/ml): 0% | inhibition at 3.12 µg/mL ([2]; conc. 3.12 μg/ml): 0% | inhibition at 12.5 µg/mL ([2]; conc. 12.5 μg/ml): 0% | inhibition at 50 µg/mL ([2]; conc. 50 μg/ml): 0% | inhibition at 100 µg/mL ([2]; conc. 100 μg/ml): 0% | inhibition at 0.2 µg/mL ([3]; conc. 0.2 μg/ml): 0% | inhibition at 0.8 µg/mL ([3]; conc. 0.8 μg/ml): 0% | inhibition at 3.12 µg/mL ([3]; conc. 3.12 μg/ml): 0% | inhibition at 12.5 µg/mL ([3]; conc. 12.5 μg/ml): 0% | inhibition at 50 µg/mL ([3]; conc. 50 μg/ml): 0% | inhibition at 100 µg/mL ([3]; conc. 100 μg/ml): 20% | inhibition at 0.2 µg/mL ([4]; conc. 0.2 μg/ml): 0% | inhibition at 0.8 µg/mL ([4]; conc. 0.8 μg/ml): 0% | inhibition at 3.12 µg/mL ([4]; conc. 3.12 μg/ml): 0% | inhibition at 12.5 µg/mL ([4]; conc. 12.5 μg/ml): 0% | inhibition at 50 µg/mL ([4]; conc. 50 μg/ml): 0% | inhibition at 100 µg/mL ([4]; conc. 100 μg/ml): 0% | inhibition at 0.2 µg/mL ([5]; conc. 0.2 μg/ml): 0% | inhibition at 0.8 µg/mL ([5]; conc. 0.8 μg/ml): 0% | inhibition at 3.12 µg/mL ([5]; conc. 3.12 μg/ml): 0% | inhibition at 12.5 µg/mL ([5]; conc. 12.5 μg/ml): 0% | inhibition at 50 µg/mL ([5]; conc. 50 μg/ml): 0% | inhibition at 100 µg/mL ([5]; conc. 100 μg/ml): 0% | inhibition at 0.2 µg/mL ([6]; conc. 0.2 μg/ml): 0% | inhibition at 0.8 µg/mL ([6]; conc. 0.8 μg/ml): 0% | inhibition at 3.12 µg/mL ([6]; conc. 3.12 μg/ml): 0% | inhibition at 12.5 µg/mL ([6]; conc. 12.5 μg/ml): 0% | inhibition at 50 µg/mL ([6]; conc. 50 μg/ml): 20% | inhibition at 100 µg/mL ([6]; conc. 100 μg/ml): 50% | inhibition at 0.2 µg/mL (Salmonella typhi AIIMS 2): 0% | inhibition at 0.8 µg/mL (Salmonella typhi AIIMS 2): 0% | inhibition at 3.12 µg/mL (Salmonella typhi AIIMS 2): 0% | inhibition at 12.5 µg/mL (Salmonella typhi AIIMS 2): 0% | inhibition at 50 µg/mL (Salmonella typhi AIIMS 2): 0% | inhibition at 100 µg/mL (Salmonella typhi AIIMS 2): 0% | inhibition at 0.2 µg/mL ([7]; conc. 0.2 μg/ml): 0% | inhibition at 0.8 µg/mL ([7]; conc. 0.8 μg/ml): 0% | inhibition at 3.12 µg/mL ([7]; conc. 3.12 μg/ml): 0% | inhibition at 12.5 µg/mL ([7]; conc. 12.5 μg/ml): 0% | inhibition at 50 µg/mL ([7]; conc. 50 μg/ml): 20% | inhibition at 100 µg/mL ([7]; conc. 100 μg/ml): 50% | inhibition at 0.2 µg/mL ([8]; conc. 0.2 μg/ml): 0% | inhibition at 0.8 µg/mL ([8]; conc. 0.8 μg/ml): 0% | inhibition at 3.12 µg/mL ([8]; conc. 3.12 μg/ml): 0% | inhibition at 12.5 µg/mL ([8]; conc. 12.5 μg/ml): 0% | inhibition at 50 µg/mL ([8]; conc. 50 μg/ml): 20% | inhibition at 100 µg/mL ([8]; conc. 100 μg/ml): 50% | inhibition at 0.2 µg/mL ([9]; conc. 0.2 μg/ml): 0% | inhibition at 0.8 µg/mL ([9]; conc. 0.8 μg/ml): 0% | inhibition at 3.12 µg/mL ([9]; conc. 3.12 μg/ml): 0% | inhibition at 12.5 µg/mL ([9]; conc. 12.5 μg/ml): 0% | inhibition at 50 µg/mL ([9]; conc. 50 μg/ml): 20% | inhibition at 100 µg/mL ([9]; conc. 100 μg/ml): 50% | inhibition at 0.2 µg/mL ([10]; conc. 0.2 μg/ml): 0% | inhibition at 0.8 µg/mL ([10]; conc. 0.8 μg/ml): 0% | inhibition at 3.12 µg/mL ([10]; conc. 3.12 μg/ml): 0% | inhibition at 12.5 µg/mL ([10]; conc. 12.5 μg/ml): 0% | inhibition at 50 µg/mL ([10]; conc. 50 μg/ml): 0% | inhibition at 100 µg/mL ([10]; conc. 100 μg/ml): 20% | inhibition at 0.2 µg/mL ([11]; conc. 0.2 μg/ml): 0% | inhibition at 0.8 µg/mL ([11]; conc. 0.8 μg/ml): 0% | inhibition at 3.12 µg/mL ([11]; conc. 3.12 μg/ml): 0% | inhibition at 12.5 µg/mL ([11]; conc. 12.5 μg/ml): 0% | inhibition at 50 µg/mL ([11]; conc. 50 μg/ml): 0% | inhibition at 100 µg/mL ([11]; conc. 100 μg/ml): 0% | inhibition at 0.2 µg/mL ([12]; conc. 0.2 μg/ml): 0% | inhibition at 0.8 µg/mL ([12]; conc. 0.8 μg/ml): 0% | inhibition at 3.12 µg/mL ([12]; conc. 3.12 μg/ml): 0% | inhibition at 12.5 µg/mL ([12]; conc. 12.5 μg/ml): 0% | inhibition at 50 µg/mL ([12]; conc. 50 μg/ml): 0% | inhibition at 100 µg/mL ([12]; conc. 100 μg/ml): 0% | inhibition at 0.2 µg/mL (Bacillus cereus RRL 02; conc. 0.2 μg/ml): 0% | inhibition at 0.8 µg/mL (Bacillus cereus RRL 02; conc. 0.8 μg/ml): 0% | inhibition at 3.12 µg/mL (Bacillus cereus RRL 02; conc. 3.12 μg/ml): 0% | inhibition at 12.5 µg/mL (Bacillus cereus RRL 02; conc. 12.5 μg/ml): 0% | inhibition at 50 µg/mL (Bacillus cereus RRL 02; conc. 50 μg/ml): 0% | inhibition at 100 µg/mL (Bacillus cereus RRL 02; conc. 100 μg/ml): 0% | inhibition at 0.2 µg/mL [13]: 0% | inhibition at 0.8 µg/mL [13]: 0% | inhibition at 3.12 µg/mL [13]: 0% | inhibition at 12.5 µg/mL [13]: 0% | inhibition at 50 µg/mL [13]: 0% | inhibition at 100 µg/mL [13]: 0% | inhibition at 0.2 µg/mL (Candida krusei ATCC 6258; conc. 0.2 μg/ml): 0% | inhibition at 0.8 µg/mL (Candida krusei ATCC 6258; conc. 0.8 μg/ml): 0% | inhibition at 3.12 µg/mL (Candida krusei ATCC 6258; conc. 3.12 μg/ml): 0% | inhibition at 12.5 µg/mL (Candida krusei ATCC 6258; conc. 12.5 μg/ml): 0% | inhibition at 50 µg/mL (Candida krusei ATCC 6258; conc. 50 μg/ml): 0% | inhibition at 100 µg/mL (Candida krusei ATCC 6258; conc. 100 μg/ml): 20% | inhibition at 0.2 µg/mL ([14]; conc. 0.2 μg/ml): 0% | inhibition at 0.8 µg/mL ([14]; conc. 0.8 μg/ml): 0% | inhibition at 3.12 µg/mL ([14]; conc. 3.12 μg/ml): 0% | inhibition at 12.5 µg/mL ([14]; conc. 12.5 μg/ml): 0% | inhibition at 50 µg/mL ([14]; conc. 50 μg/ml): 0% | inhibition at 100 µg/mL ([14]; conc. 100 μg/ml): 0%
